Measurements published in patent publication US10501438B2, “Aryl-substituted dihydroquinolinones, their preparation and their use as pharmaceuticals” (NEOMED Institute, priority 2015, dated 2019).

What follows are compounds tested on human C-Myc transcription in MV-4-11 cells (assay: Transcription of human C-Myc in human leukemic MV-4-11 cells (QuantiGene 2.0)). Settings: Homo sapiens, MV4-11, 4 h, inhibition of C-Myc mRNA, 4 hours treatment.
Format: cell-based
Description: b) Transcription of Human C-Myc in Human Leukemic MV-4-11 Cells:
The effect of compounds on transcription of human C-Myc gene is monitored in human B-myelomonocytic leukemia cell line MV-4-11 (from American Type Culture Collection (ATCC), Manassas, Va., USA) using QuantiGene 2.0 assay kit (Affymetrix, Santa Clara, Calif., USA).
Typically, 8,000 MV-4-11 cells are plated in sterile 96-well plates (Costar #3598 from Fisher Scientific Canada, Ottawa, Ontario, Canada) in Iscove's medium supplemented with 10% fetal bovine serum, glutamine (2 mM), and penicillin (100 I.U.) and streptomycin (100 μg/mL) (all from Wisent Inc., St. Bruno, Quebec, Canada). Compounds are dissolved in DMSO at 30 mM. A series of 1:3 dilutions are first made in DMSO, and further 1:100 dilutions are made in serum-containing cell culture media. The final concentration of DMSO is 0.1% in cell culture media. After cells are treated with various concentrations of test compound for 4 hours, cells are lysed using Quantigene 2.0 sample processing kit (#QS0100). C-Myc mRNA is detected using a QuantiGene 2.0 assay kit (#QS0009) with gene-specific probe to human C-Myc (#SA-50182) following the manufacturer's recommendations. Luminescene signals are read on Flexstation II microplate reader (Molecular Devices, Sunnyvale, Calif., USA).

Compound	IC50 [nM]
Cc1cc(-c2cc3c(c(OCc4cncnc4)c2)NC(=O)CC3)cn(C)c1=O [Compound 53, 6-(1,5-dimethyl-6-oxo-1,6-dihydropyridin-3-yl)-8-(pyrimidin-5-ylmethoxy)-3,4-dihydroquinolin-2(1H)-one]	2080
Cc1cc(-c2cc3c(c(OCC4CCCOC4)c2)NC(=O)CC3)cn(C)c1=O (stereo not drawn) [Compound 54a, 6-(1,5-dimethyl-6-oxo-1,6-dihydropyridin-3-yl)-8-((tetrahydro-2H-pyran-3-yl)methoxy)-3,4-dihydroquinolin-2(1H)-one]	550
Cc1cc(-c2cc3c(c(OCC4CCCCO4)c2)NC(=O)CC3)cn(C)c1=O (stereo not drawn) [Compound 55a, 6-(1,5-dimethyl-6-oxo-1,6-dihydropyridin-3-yl)-8-((tetrahydro-2H-pyran-2-yl)methoxy)-3,4-dihydroquinolin-2(1H)-one]	580
Cc1cc(-c2ccc3c(c2Cc2ccccn2)CCC(=O)N3)cn(C)c1=O [Compound 57, 6-(1,5-dimethyl-6-oxo-1,6-dihydropyridin-3-yl)-5-(pyridin-2-ylmethyl)-3,4-dihydroquinolin-2(1H)-one]	240
Cc1cc(-c2ccc3c(c2Cc2cccnc2)CCC(=O)N3)cn(C)c1=O [Compound 58, 6-(1,5-dimethyl-6-oxo-1,6-dihydropyridin-3-yl)-5-(pyridin-3-ylmethyl)-3,4-dihydroquinolin-2(1H)-one]	250
Cc1cc(-c2ccc3c(c2Cc2ccncc2)CCC(=O)N3)cn(C)c1=O [Compound 59, 6-(1,5-dimethyl-6-oxo-1,6-dihydropyridin-3-yl)-5-(pyridin-4-ylmethyl)-3,4-dihydroquinolin-2(1H)-one]	270
Cc1cc(-c2cc3c(cc2Cc2ccccn2)NC(=O)CC3)cn(C)c1=O [Compound 61, 6-(1,5-dimethyl-6-oxo-1,6-dihydropyridin-3-yl)-7-(pyridin-2-ylmethyl)-3,4-dihydroquinolin-2(1H)-one]	890
Cc1cc(-c2cc3c(cc2Cc2cccnc2)NC(=O)CC3)cn(C)c1=O [Compound 62, 6-(1,5-dimethyl-6-oxo-1,6-dihydropyridin-3-yl)-7-(pyridin-3-ylmethyl)-3,4-dihydroquinolin-2(1H)-one]	860
Cc1cc(-c2ccc3c(c2COC2CCC2)CCC(=O)N3)cn(C)c1=O [Compound 67, 5-(cyclobutoxymethyl)-6-(1,5-dimethyl-6-oxo-1,6-dihydropyridin-3-yl)-3,4-dihydroquinolin-2(1H)-one]	2030
Cc1cc(-c2ccc3c(c2COC2CCCC2)CCC(=O)N3)cn(C)c1=O [Compound 68, 5-((cyclopentyloxy)methyl)-6-(1,5-dimethyl-6-oxo-1,6-dihydropyridin-3-yl)-3,4-dihydroquinolin-2(1H)-one]	8560
Cc1cc(-c2cc3c(cc2COC2CCC2)NC(=O)CC3)cn(C)c1=O [Compound 69, 7-(cyclobutoxymethyl)-6-(1,5-dimethyl-6-oxo-1,6-dihydropyridin-3-yl)-3,4-dihydroquinolin-2(1H)-one]	1250
Cc1cc(-c2cc3c(cc2COC2CCCC2)NC(=O)CC3)cn(C)c1=O [Compound 70, 7-((cyclopentyloxy)methyl)-6-(1,5-dimethyl-6-oxo-1,6-dihydropyridin-3-yl)-3,4-dihydroquinolin-2(1H)-one]	7820

Further lines, results first:

IC50 [nM]	Compound
540	Cc1cc(-c2cc3c(c(OCC4CCCCC4)c2)NC(=O)CC3)cn(C)c1=O [Compound 71]
> 6140	Cc1cc(-c2cc3c(c(OCC4CCOCC4)c2)NC(=O)CC3)cn(C)c1=O [Compound 72, 6-(1,5-dimethyl-6-oxo-1,6-dihydropyridin-3-yl)-8-((tetrahydro-2H-pyran-4-yl)methoxy)-3,4-dihydroquinolin-2(1H)-one]
500	Cc1cc(-c2cc3c(c(OCc4ccncc4)c2)NC(=O)CC3)cn(C)c1=O [Compound 73, 6-(1,5-dimethyl-6-oxo-1,6-dihydropyridin-3-yl)-8-(pyridin-4-ylmethoxy)-3,4-dihydroquinolin-2(1H)-one]
120	Cc1cc(-c2cc3c(c(O[C@@H](C)c4ccccn4)c2)NC(=O)CC3)cn(C)c1=O [Compound 74a, (S)-6-(1,5-dimethyl-6-oxo-1,6-dihydropyridin-3-yl)-8-(1-(pyridin-2-yl)ethoxy)-3,4-dihydroquinolin-2(1H)-one]
410	Cc1cc(-c2cc3c(c(O[C@H](C)c4ccccn4)c2)NC(=O)CC3)cn(C)c1=O [Compound 74b, (R)-6-(1,5-dimethyl-6-oxo-1,6-dihydropyridin-3-yl)-8-(1-(pyridin-2-yl)ethoxy)-3,4-dihydroquinolin-2(1H)-one]
180	Cc1ccc(COc2cc(-c3cc(C)c(=O)n(C)c3)cc3c2NC(=O)CC3)nc1 [Compound 75, 6-(1,5-dimethyl-6-oxo-1,6-dihydropyridin-3-yl)-8-((5-methylpyridin-2-yl)methoxy)-3,4-dihydroquinolin-2(1H)-one]
560	Cc1cccnc1COc1cc(-c2cc(C)c(=O)n(C)c2)cc2c1NC(=O)CC2 [Compound 76, 6-(1,5-dimethyl-6-oxo-1,6-dihydropyridin-3-yl)-8-((3-methylpyridin-2-yl)methoxy)-3,4-dihydroquinolin-2(1H)-one]
2280	Cc1cc(-c2cc3c(c(OCc4ccc(F)cn4)c2)NC(=O)CC3)cn(C)c1=O [Compound 77, 6-(1,5-dimethyl-6-oxo-1,6-dihydropyridin-3-yl)-8-((5-fluoropyridin-2-yl)methoxy)-3,4-dihydroquinolin-2(1H)-one]
100	Cc1cc(-c2cc3c(c(NCc4cccnc4)c2)NC(=O)CC3)cn(C)c1=O [Compound 78, 6-(1,5-dimethyl-6-oxo-1,6-dihydropyridin-3-yl)-8-(pyridyl-3-ylmethylamino)-3,4-dihydro-1H-quinolin-2-one]
240	Cn1cc(-c2cc3c(c(OCc4ccccn4)c2)NC(=O)CC3)cc(Cl)c1=O [Compound 79, 6-(5-chloro-1-methyl-6-oxo-1,6-dihydropyridin-3-yl)-8-(pyridin-2-ylmethoxy)-3,4-dihydroquinolin-2(1H)-one]
520	Cn1cc(-c2cc3c(c(OCc4cccnc4)c2)NC(=O)CC3)cc(Cl)c1=O [Compound 80, 6-(5-chloro-1-methyl-6-oxo-1,6-dihydropyridin-3-yl)-8-(pyridin-3-yl-methoxy)-3,4-dihydroquinolin-2(1H)-one]
530	Cc1cc(-c2cc3c(c(OCc4ncco4)c2)NC(=O)CC3)cn(C)c1=O [Compound 81, 6-(1,5-dimethyl-6-oxo-1,6-dihydropyridin-3-yl)-8-(oxazol-2-ylmethoxy)-3,4-dihydroquinolin-2(1H)-one]
250	Cc1cc(-c2cc3c(c(OCc4cscn4)c2)NC(=O)CC3)cn(C)c1=O [Compound 82, 6-(1,5-dimethyl-6-oxo-1,6-dihydropyridin-3-yl)-8-(thiazol-4-ylmethoxy)-3,4-dihydroquinolin-2(1H)-one]

Same assay, conditions: inhibition of C-Myc mRNA, 4 hours treatment

IC50 [nM]	Compound
800	Cc1cc(-c2cc3c(c(OCC4CCCOC4)c2)NC(=O)CC3)cn(C)c1=O (stereo not drawn) [Compound 54b, 6-(1,5-dimethyl-6-oxo-1,6-dihydropyridin-3-yl)-8-((tetrahydro-2H-pyran-3-yl)methoxy)-3,4-dihydroquinolin-2(1H)-one]
800	Cc1cc(-c2cc3c(c(OCC4CCCCO4)c2)NC(=O)CC3)cn(C)c1=O (stereo not drawn) [Compound 55b, 6-(1,5-dimethyl-6-oxo-1,6-dihydropyridin-3-yl)-8-((tetrahydro-2H-pyran-2-yl)methoxy)-3,4-dihydroquinolin-2(1H)-one]
